The nature of data set [1]: Stability test: aging of formulation samples in heated ovens per CIPAC MT 46.3, isoxadifen-ethyl content by HPLC. It counts as physicochemical. The settings on record: for RPH % (relative percentage of hydrolysis): stored at 54° C. for 1 week. The method, then: The stability of the isoxadifen-ethyl in these compositions was determined by aging samples in heated ovens having the same atmosphere therein, and then comparing the isoxadifen-ethyl content before and after aging to determine relative percentage of hydrolysis (RPH). RPH was calculated by the following equation: […]
Isoxadifen-ethyl content was determined by assaying the compositions with high-pressure liquid chromatography (HPLC) using reverse phase columns and eluants.
Samples prepared in Examples 4, 5 and 6 were stored at 54° C. for 1 week. The procedures are followed according to CIPAC MT 46.3. The concentration of isoxadifen-ethyl was measured at the end of each storage time by HPLC.

Data set [2] is described as follows: Stability of isoxadifen-ethyl (hydrolysis in water or during storage), general statement. It counts as physicochemical. The settings on record: dissolved or dispersed in water; storage with exposure to moisture.
Setting [3] is: Example 4 oil based suspension concentrate (OD) with tribenuron-methyl, 10 weight % isoxadifen-ethyl.
Where [4] appears, read: Example 5 soluble granules (SG) with metsulfuron-methyl, 7 weight % isoxadifen-ethyl.
Where [5] appears, read: Example 6 water dispersible granules (WG) with metsulfuron-methyl, 7 weight % isoxadifen-ethyl.

Take `CCOC(=O)C1=NOC(c2ccccc2)(c2ccccc2)C1` [Isoxadifen-ethyl, crystalline modification I] [Ethyl 4,5-dihydro-5,5-diphenyl-3-isoxazolecarboxylate]: the “RPH % (relative percentage of hydrolysis)” value in data set [1] (setting [3]), in data set [1] (setting [4]) and in data set [1] (setting [5]) was 0% in each case. Also, the “stability when mixing with sulfonylurea herbicides in formulations” value in data set [1] (relative to formulations containing the amorphous form) is on record as “significant increase in its stability”.
For `CCOC(=O)C1=NOC(c2ccccc2)(c2ccccc2)C1` [Amorphous isoxadifen-ethyl, Ethyl 4,5-dihydro-5,5-diphenyl-3-isoxazolecarboxylate], the “RPH % (relative percentage of hydrolysis)” value in data set [1] (setting [3]) is recorded as 50%; in data set [1] (setting [4]), 40%; in data set [1] (setting [5]), 45%. Besides, in data set [2], the “stability (hydrolysis)” value is “highly unstable”.

Values taken from patent US10015967B2, “Form of isoxadifen-ethyl, a process for its preparation and use of the same” (ROTAM AGROCHEM INTERNATIONAL COMPANY LIMITED, priority 2015, dated 2018).
